Measurements from patent US20220340597A1, “HEXAHYDRO-1H-PYRAZINO[1,2-A]PYRAZINE COMPOUNDS FOR THE TREATMENT OF AUTOIMMUNE DISEASE” (Hoffmann-La Roche Inc., priority 2019, published 2022).

Target: T1, hERG channel (Homo sapiens, UniProt Q12809)
T1 construct: expressed in transfected cells; host or cells: CHO (Chinese hamster ovary), CHOhERG
Experiment: hERG channel inhibition assay (patch-clamp, CHOhERG cells)
Assay type: cell-based
Details: for IC50 / IC20: CHOhERG cells, whole-cell patch-clamp; for IC20: human, CHO cells stably expressing hERG (CHOhERG); for hERG IC20/TLR7 IC50 / hERG IC20/TLR8 IC50 / hERG IC20/TLR9 IC50: safety ratio
How it was run: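 Whole-cell voltage-clamp recordings of IKhERG in CHO cells stably expressing human hERG, stimulated at 0.1 Hz. Compound applied at rising concentrations, each held 3–10 min to reach steady state; current amplitude and kinetics compared with pre-drug control set as 100%.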

T1 sequence (Q12809 whole entry): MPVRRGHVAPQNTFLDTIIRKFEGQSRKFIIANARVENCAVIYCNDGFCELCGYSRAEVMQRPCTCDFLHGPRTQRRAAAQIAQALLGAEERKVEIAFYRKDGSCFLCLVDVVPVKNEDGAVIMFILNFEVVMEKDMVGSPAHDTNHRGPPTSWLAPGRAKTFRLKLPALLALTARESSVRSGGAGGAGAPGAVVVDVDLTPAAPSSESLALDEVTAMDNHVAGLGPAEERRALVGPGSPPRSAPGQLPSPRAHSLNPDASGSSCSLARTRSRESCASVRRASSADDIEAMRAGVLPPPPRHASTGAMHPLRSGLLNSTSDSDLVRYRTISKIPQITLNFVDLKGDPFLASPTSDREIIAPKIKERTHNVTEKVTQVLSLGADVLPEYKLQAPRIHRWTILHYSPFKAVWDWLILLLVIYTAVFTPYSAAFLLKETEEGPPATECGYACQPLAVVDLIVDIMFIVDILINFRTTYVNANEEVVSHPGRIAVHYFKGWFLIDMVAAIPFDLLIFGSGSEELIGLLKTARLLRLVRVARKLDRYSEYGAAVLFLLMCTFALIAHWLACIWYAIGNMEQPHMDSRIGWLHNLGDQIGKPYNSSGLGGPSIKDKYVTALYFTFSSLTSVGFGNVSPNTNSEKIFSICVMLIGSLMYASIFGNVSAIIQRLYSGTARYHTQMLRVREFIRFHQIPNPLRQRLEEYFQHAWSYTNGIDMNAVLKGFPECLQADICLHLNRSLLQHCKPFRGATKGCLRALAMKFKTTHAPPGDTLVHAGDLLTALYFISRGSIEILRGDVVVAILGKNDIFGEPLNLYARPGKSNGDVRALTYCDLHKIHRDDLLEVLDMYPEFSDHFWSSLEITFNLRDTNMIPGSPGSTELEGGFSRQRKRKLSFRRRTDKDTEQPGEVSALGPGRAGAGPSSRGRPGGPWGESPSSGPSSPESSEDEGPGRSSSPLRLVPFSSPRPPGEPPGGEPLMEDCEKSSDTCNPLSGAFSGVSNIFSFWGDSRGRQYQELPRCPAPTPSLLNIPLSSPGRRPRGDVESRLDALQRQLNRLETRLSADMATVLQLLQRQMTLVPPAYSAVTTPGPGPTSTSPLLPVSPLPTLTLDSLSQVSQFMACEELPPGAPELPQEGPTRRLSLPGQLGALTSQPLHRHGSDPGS

SMILES	IC50	IC20	hERG IC20/TLR7 IC50	hERG IC20/TLR8 IC50	hERG IC20/TLR9 IC50
Cc1cc(N2CCNCC2)cnc1N1CCN2[C@@H](C1)CN(c1cc(=O)n(C)c3ncccc13)C[C@H]2C [Example 93, 4-[(4R,9aR)-4-methyl-8-(3-methyl-5-piperazin-1-yl-2-pyridyl)-3,4,6,7,9,9a-hexahydro-1H-pyrazino[1,2-a]pyrazin-2-yl]-1-methyl-1,8-naphthyridin-2-one]	> 20 µM	> 10 µM	>1000	>163	>53
[2H]c1ccc2c(N3C[C@@H]4CN(Cc5ccc(N6CC7(CN(C)C7)C6)nc5C)CCN4[C@H](C)C3)ccc(C#N)c2n1 [Example 80, 5-[(4R,9aS)-4-methyl-8-[[2-methyl-6-(6-methyl-2,6-diazaspiro[3.3]heptan-2-yl)-3-pyridyl]methyl]-3,4,6,7,9,9a-hexahydro-1H-pyrazino[1,2-a]pyrazin-2-yl]-2-deuterio-quinoline-8-carbonitrile]	> 20 µM	> 10 µM	>434	>2000	>312
[2H]c1ccc2c(N3C[C@@H]4CN(Cc5ccc(N6CC7CNCC(C6)O7)nc5C)CCN4[C@H](C)C3)ccc(C#N)c2n1 [Example 83, 5-[(4R,9aS)-4-methyl-8-[[2-methyl-6-(9-oxa-3,7-diazabicyclo[3.3.1]nonan-3-yl)-3-pyridyl]methyl]-3,4,6,7,9,9a-hexahydro-1H-pyrazino[1,2-a]pyrazin-2-yl]-2-deuterio-quinoline-8-carbonitrile]	> 20 µM	> 10 µM	>588	>1428	>196
[2H]c1ccc2c(N3C[C@@H]4CN(Cc5ccc(N6C[C@H]7NCCO[C@@H]7C6)nc5C)CCN4[C@H](C)C3)ccc(C#N)c2n1 [Example 98, 5-[(4R,9aS)-8-[[6-[(4aR,7aR)-3,4,4a,5,7,7a-hexahydro-2H-pyrrolo[3,4-b][1,4]oxazin-6-yl]-2-methyl-3-pyridyl]methyl]-4-methyl-3,4,6,7,9,9a-hexahydro-1H-pyrazino[1,2-a]pyrazin-2-yl]-2-deuterio-quinoline-8-carbonitrile]	> 20 µM	> 10 µM	>416	>1000	>172
C[C@@H]1CN(c2ccc(C#N)c3ncccc23)C[C@@H]2CN(Cc3ccc4c(c3)CNCC4)CCN21 (relative stereo) [Example 1]	> 20 µM	> 10 µM	>588	>1000	>172
[2H]c1ccc2c(N3C[C@@H]4CN(Cc5ccc(N[C@H]6CNC[C@H]6F)nc5C)CCN4[C@H](C)C3)ccc(C#N)c2n1 [Example 82, 5-[(4R,9aS)-8-[[6-[[(3S,4R)-4-fluoropyrrolidin-3-yl]amino]-2-methyl-3-pyridyl]methyl]-4-methyl-3,4,6,7,9,9a-hexahydro-JH-pyrazino[1,2-a]pyrazin-2-yl]-2-deuterio-quinoline-8-carbonitrile]	> 20 µM	> 10 µM	>833	>3333	>243
[2H]c1ccc2c(N3C[C@@H]4CN(Cc5ccc(N6C[C@@H]7C[C@H]6CN7)nc5C)CCN4[C@H](C)C3)ccc(C#N)c2n1 [Example 92, 5-[(4R,9aS)-8-[[6-[(1S,4S)-2,5-diazabicyclo[2.2.1]heptan-2-yl]-2-methyl-3-pyridyl]methyl]-4-methyl-3,4,6,7,9,9a-hexahydro-1H-pyrazino[1,2-a]pyrazin-2-yl]-2-deuterio-quinoline-8-carbonitrile]	> 20 µM	> 10 µM	>1666	>1111	>294
